Source: patent publication US8936930B2, “Red microalgae expressing exogenous polypeptides and methods of generating and utilizing same” (priority 2004, dated 2015)

Test system: Porphyridium sp.
Assay: Antibiotic sensitivities of Porphyridium sp. (growth in ASW supplemented with antibiotic)
Type: cell-based, Porphyridium sp. (UTEX 637)
Design: key to Growth: ++: no inhibition of growth rate; +: slight inhibition of growth rate; −: no growth
Conditions: for Growth: Porphyridium sp. in ASW
Method: Porphyridium sp. (UTEX 637, from the culture collection of algae at the University of Texas at Austin) cells were cultured in artificial seawater (ASW; Jones et al. Plant Physiol. 16:636-643, 1963) supplemented with different antibiotic compounds for evaluating antibiotic sensitivities.

For O=C(N[C@H](CO)[C@H](O)c1ccc([N+](=O)[O-])cc1)C(Cl)Cl [Chloramphenicol], the Growth (200 μg/ml) was “+” and the Growth (500 μg/ml) was “−”.

C[C@@H]1C[C@@H]([C@H](O)CC2CC(=O)NC(=O)C2)C(=O)[C@@H](C)C1 [Cyclohexhimide] was tested, and the Growth (5 μM) was “−”.

CN[C@@H]1[C@@H](O)[C@@H](O[C@@H]2[C@@H](O)[C@H](O[C@H]3O[C@H]([C@@H](C)O)[C@@H](O)[C@H](O)[C@H]3N)[C@@H](N)C[C@H]2N)OC[C@]1(C)O [G418] was tested, and the Growth (2 μg/ml) was “+”.

In the case of NC[C@H]1O[C@H](O[C@H]2[C@H](O)[C@@H](O[C@H]3O[C@H](CO)[C@@H](O)[C@H](N)[C@H]3O)[C@H](N)C[C@@H]2N)[C@H](O)[C@@H](O)[C@@H]1O [Kanamycin], the Growth (700 μg/ml) is reported as “++”.

In the case of CCC[C@@H]1C[C@@H](C(=O)N[C@@H]([C@H]2O[C@H](SC)[C@H](O)[C@@H](O)[C@H]2O)[C@@H](C)O)N(C)C1 [Lincomycin], the Growth (300 μg/ml) is reported as “++”.

For CN(Cc1cnc2nc(N)nc(N)c2n1)c1ccc(C(=O)N[C@@H](CCC(=O)O)C(=O)O)cc1 [Methotrexate], the Growth (80 μg/ml) was “++”.

With NC[C@@H]1O[C@H](O[C@H]2[C@@H](O)[C@H](O[C@@H]3[C@@H](O)[C@H](N)C[C@H](N)[C@H]3O[C@H]3O[C@H](CO)[C@@H](O)[C@H](O)[C@H]3N)O[C@@H]2CO)[C@H](N)[C@@H](O)[C@@H]1O [Paramomycin] the Growth (200 μg/ml) was “++”.

CN[C@@H]1[C@H](O)[C@H](NC)[C@H]2O[C@@]3(O)C(=O)C[C@@H](C)O[C@H]3O[C@@H]2[C@H]1O [Spectinomycin] was tested, and the Growth (300 μg/ml) was “++”.

Cc1c(N)nc([C@H](CC(N)=O)NC[C@H](N)C(N)=O)nc1C(=O)N[C@H](C(=O)N[C@H](C)[C@@H](O)[C@H](C)C(=O)N[C@H](C(=O)NCCC1=N[C@@H](c2nc(C(=O)NCCCCN=C(N)N)cs2)CS1)[C@@H](C)O)[C@@H](O[C@@H]1O[C@@H](CO)[C@@H](O)[C@H](O)[C@@H]1O[C@H]1O[C@H](CO)[C@@H](O)[C@H](OC(N)=O)[C@@H]1O)c1cnc[nH]1 [Zeocin] was tested, and the “Growth of untransformed (wild-type) Porphyridium sp. (in words)” value (zeocin 4 μg/ml, 17 days incubation in ASW medium) was “no growth”, the “Growth of wild type Porphyridium sp. (in words)” value (zeocin 10 μg/ml) was “no growth” and the “Growth of Porphyridium sp. (in words)” value (zeocin 4-8 μg/ml) was “no growth”.

In the case of Neomycin, the Growth (150 μg/ml) is reported as “++”.

With Phleomycin the Growth (10 μg/ml) was “++”.
